The numbers were not newly measured in publication PMC7997578, “Design, Synthesis, Dynamic Docking, Biochemical Characterization, and in Vivo Pharmacokinetics Studies of Novel Topoisomerase II Poisons with Promising Antiproliferative Activity” (Journal of Medicinal Chemistry, 2020), which cites them from elsewhere.

Structures are written as SMILES.

Holding throughout (parameters): method as in PMID 29077404
Series [1] deals with HeLa cells. The settings on record: etoposide and merbarone measured in ref 39, read-out: HeLa antiproliferative activity IC50; cited from earlier work.
Series [2] concerns DU145 cells. The settings on record: etoposide and merbarone measured in ref 39, read-out: DU145 antiproliferative activity IC50; cited from earlier work.
The subject of series [3] is human topoII. As to conditions: earlier values of the same authors; read-out: IC50 topoII blocker; cited from earlier work.
The subject of series [4] is A549 cells. As to conditions: etoposide and merbarone measured in ref 39, read-out: A549 antiproliferative activity IC50; cited from earlier work.

A word on the IC50: it is the concentration needed to halve the response being measured. For `COc1cc([C@@H]2c3cc4c(cc3[C@@H](O[C@@H]3O[C@@H]5CO[C@@H](C)O[C@H]5[C@H](O)[C@H]3O)[C@H]3COC(=O)[C@H]23)OCO4)cc(OC)c1O` [etoposide], the IC50 is 2.4 ± 0.9 µM in series [1], 1 ± 0.8 µM in series [2], […] in series [3] and 1.3 ± 0.1 µM in series [4].
